Read-outs that look alike come from different tables or passages of the source.
Key:
MDA-MB-231 = assay: Cytotoxicity assay (MTS, 72 h); format: cell-based; conditions: Homo sapiens
MDA-MB-453 = assay: Cytotoxicity assay (MTS, 72 h); format: cell-based, human; conditions: Homo sapiens, MDA-MB-453; Table 6; read-out: IC50 (nM) Breast Cancer MDA-MB-453
Mia PaCa-2 [1] = assay: Cytotoxicity assay (MTS, 72 h); format: cell-based; conditions: Homo sapiens
PANC-1 [2] = assay: Cytotoxicity assay (MTS, 72 h); format: cell-based; conditions: Homo sapiens
Method: Mia PaCa-2 and PANC-1 cells were seeded in 96-well plates at 4000 and 5000 cells per well, respectively.
(§1) Cytotoxicity Assay. […] Each experiment consisted of four replicates.

PC3 = assay: Cytotoxicity assay (MTS, 72 h); format: cell-based; conditions: Homo sapiens, PC-3; Table 6; read-out: IC50 (nM) Prostate cancer PC3
From the text: as §1

PC3/TxR = assay: Cytotoxicity assay (MTS, 72 h); format: cell-based; conditions: Homo sapiens, Table 6, paclitaxel-resistant, read-out: IC50 (nM) Prostate cancer PC3/TxR
Method: Biology. Cell culture and Reagents. […] MIA Paca-2 pancreatic cancer cells were cultured in media also supplemented with 2.5% horse serum. PANC-1 and PC-3 were cultured in RPMI 1640 medium (Gibco, Carlsbad, Calif.) supplemented with 10% FBS and 1% antibiotic/antimycotic mixture. […] For biological experiments, pyrimidine dihydroquinoxalinone derivatives were dissolved in DMSO to create 20 mM stock solutions and stored at −20° C. until use.
as §1

[3] = Pharmacokinetic evaluation of 12k in mice; format: in vivo, NSG mice; conditions: female, mouse, plasma; for half-life: NSG
Method: Female NSG mice at 7 to 9 weeks of age were used in pharmacokinetic studies. Mice received a single dose of 4 mg/kg 12k intravenously (50% PEG300:50% saline) or 10 mg/kg orally (90% PEG300:10% saline). Blood of animals (n=3) was collected in heparinized tubes via terminal intracardiac blood collection at predefined time points (0.08, 0.25, 0.5, 1, 3, 6, 12, 24 h) and plasma was immediately separated by centrifugation (10,000 rpm for 10 min at 4° C.) and stored at −80° C. until analysis.

[4] = test system: PC-3/TxR xenograft tumors; assay: Subcutaneous PC-3/TxR xenograft model; format: in vivo
A-253 and Detroit 562 [5] = assay: Cytotoxicity in head and neck cancer cell lines; format: cell-based; conditions: Homo sapiens; FIG. 39A; read-out: IC50 values, range over A-253 and Detroit 562
Method: A panel of dihydroquinoxalinones were tested in two head and neck cancer cell lines, A-253 and Detroit 562. A-253 cells are a human salivary epidermoid carcinoma cell line, whereas Detroit 562 is a head and neck squamous cell carcinoma (HNSCC). Oral cancer is the most common type of head and neck cancer and more than 90% of oral cancers are either oral or oropharyngeal squamous cell carcinoma (SCC). A major clinical dilemma is chemotherapy efficiency targeted for head and neck squamous cell carcinoma (HNSCC). The inability to successfully complete cancer treatment utilizing a standard surgical approach due to an advanced stage of HNSCC and/or resistance of SCC cells to conventional chemotherapy and/or radiotherapy leads to a continuous search for new compounds with cytostatic activity and minor side effects.
FIGS. 39B and 39C illustrate the graphical representation of the data. […] For example, at treatment levels as low of 0.5 nM, 12k was able to prevent head and neck cancer cell proliferation almost completely, whereas it required 5 nM of 17ya to achieve similar antiproliferation.

A-253 cells = assay: Colony formation, head and neck cancer; format: cell-based, human
Method: (§2) FIG. 41A illustrates the effect of compound 12k on colony formation in the A-253 cell line. FIG. 41B illustrates the effect of compound 12k on colony formation in the Detroit 562 cell line. Colony formation experiments were performed as described elsewhere herein.

Detroit 562 cells = assay: Colony formation, head and neck cancer; format: cell-based, human
Method: as §2

A-253 and Detroit 562 [6] = assay: Western blot of apoptosis markers, head and neck cancer; format: cell-based, human; conditions: 100 nM, 72 hours
From the text: FIG. 42A illustrates that compound 12k induces apoptosis in the A-253 cell line. FIG. 42B illustrates that compound 12k induces apoptosis in the Detroit 562 cell line.

in vivo = conditions: male, NSG, mouse, brain/plasma, iv, 4 mg/kg
in vitro [7] = conditions: human, liver microsomes
in vitro [8] = conditions: mouse, liver microsomes
A375 = assay: Cytotoxicity assay (MTS, 72 h); conditions: Homo sapiens, A-375, read-out: IC50 (nM) Melanoma Cancer A375, Table 6;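 also: compounds tested from 0.1 nM up to 3 µM in four replicate wells, with absorbance read at 490 nm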
M14 = assay: Cytotoxicity assay (MTS, 72 h); conditions: Homo sapiens, M14, read-out: IC50 (nM) Melanoma Cancer M14
A-253 and Detroit 562 [9] = assay: Head and neck cancer cell proliferation (confluence %)
MDA-MB-231/TxR = assay: Cytotoxicity assay (MTS, 72 h); format: cell-based; conditions: Homo sapiens, read-out: IC50 ± SEM (nM) MDA-MB-231/TxR, Table 2, paclitaxel-resistant
MDA-MB-231/VxR = assay: Cytotoxicity assay (MTS, 72 h); format: cell-based; conditions: Homo sapiens, MDA-MB-231, read-out: IC50 ± SEM (nM) MDA-MB-231/VXR
[10] = biological target: T1, tubulin protein from bovine brain (Bos taurus, UniProt P81947+Q6B856); assay: Tubulin polymerization assay (FIG. 5A); format: biochemical; conditions: 10 μM, cell-free
T1 construct: tubulin protein from bovine brain origin; purchased Cytoskeleton, Denver, Colo; host or cells: bovine brain
T1 sequence (P81947 whole entry): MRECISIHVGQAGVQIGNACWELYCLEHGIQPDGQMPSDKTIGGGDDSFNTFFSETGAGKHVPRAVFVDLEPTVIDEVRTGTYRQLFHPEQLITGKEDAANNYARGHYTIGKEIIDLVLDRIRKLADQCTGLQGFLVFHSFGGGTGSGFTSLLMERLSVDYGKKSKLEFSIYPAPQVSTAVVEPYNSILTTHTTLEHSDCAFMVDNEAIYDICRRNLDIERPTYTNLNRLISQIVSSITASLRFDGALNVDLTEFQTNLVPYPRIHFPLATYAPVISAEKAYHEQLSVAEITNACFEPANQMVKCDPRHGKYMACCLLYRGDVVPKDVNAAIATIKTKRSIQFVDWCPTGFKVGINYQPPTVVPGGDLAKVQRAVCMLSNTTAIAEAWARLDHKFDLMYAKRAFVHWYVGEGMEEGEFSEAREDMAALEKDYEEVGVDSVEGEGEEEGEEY
T1 sequence (Q6B856 whole entry): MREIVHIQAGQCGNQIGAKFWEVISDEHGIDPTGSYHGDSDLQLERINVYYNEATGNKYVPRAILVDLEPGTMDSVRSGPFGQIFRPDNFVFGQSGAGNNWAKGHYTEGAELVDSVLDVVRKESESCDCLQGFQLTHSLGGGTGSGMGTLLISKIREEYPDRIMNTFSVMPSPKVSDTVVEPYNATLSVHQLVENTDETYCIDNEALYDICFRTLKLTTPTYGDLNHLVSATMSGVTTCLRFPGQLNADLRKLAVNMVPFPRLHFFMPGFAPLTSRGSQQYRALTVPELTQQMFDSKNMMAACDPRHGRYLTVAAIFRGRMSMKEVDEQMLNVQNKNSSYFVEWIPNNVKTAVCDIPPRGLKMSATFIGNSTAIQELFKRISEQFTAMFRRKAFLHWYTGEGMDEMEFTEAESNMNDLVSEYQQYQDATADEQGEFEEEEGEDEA
Method: Tubulin polymerization reaction was initiated by adding 100 μL of tubulin protein from bovine brain origin (3 mg/ml, Cytoskeleton, Denver, Colo.) into 10 μM of test compounds in general tubulin buffer (80 mM PIPES, 2.0 mM MgCl2, 0.5 mM EGTA, and 1 mM GTP) according to the manufacturer protocol. The reaction kinetics were recorded in every thirty seconds for 1 h at 37° C. and a microplate reader equipped with absorbance settings at 340 nm wavelength was used for this purpose. The experiment was performed in duplicates.

porcine brain tubulin = biological target: T2, porcine brain tubulin (Sus scrofa, UniProt P02550+P02554); assay: Tubulin polymerization inhibitory assay (FIG. 29A); format: biochemical; conditions: 10 μM, 37° C.; DMSO control 0.3
T2 construct: tubulin mixture containing porcine brain tubulin (3 mg/mL); purchased Cytoskeleton, Inc. T-238P; host or cells: porcine brain
T2 sequence (P02550 whole entry): as the sequence (P81947 whole entry) above, with L136S, S232G, I265A, S340T, Q358E counted along it
T2 sequence (P02554 whole entry): as the sequence (Q6B856 whole entry) above, with T55A, M170V, S296A, I316V, E440G, G441E counted along it
Method: Tubulin polymerization inhibitory assay: In vitro tubulin polymerization assay was carried out according to the manufacturers' instructions (Cytoskeleton). Briefly, 10 μM of 5v was added into tubulin protein (3 mg/mL, purity>99%), and the mixture was transferred into a microplate reader and incubated at 37° C. […] Colchicine and paclitaxel were used as positive controls. […] The assay was carried out in duplicate.

A375/TxR xenografts = assay: In vivo A375/TxR melanoma xenograft model; design: species or system NSG mice
Mia PaCa-2 [11] = assay: Colony formation assay (PDAC); format: cell-based, human; conditions: tested 1, 2.5, 5 nM
Method: Cells were seeded at 1000 cells per well in 6-well plates in triplicates and treated with vehicle control or 1-5 nmol/L test compounds for 11 to 14 days. The colonies were fixed with 100% methanol and stained with 0.5% crystal violet. Colony area was quantified with Image J software.

PANC-1 [12] = assay: Colony formation assay (PDAC); format: cell-based, human; conditions: tested 1, 2.5, 5 nM
Mia PaCa-2 cells = assay: Scratch migration assay (PDAC); format: cell-based, human; conditions: 5m 2 nM, PTX 4 nM, 48 h; listed as PTX
Method: The Mia PaCa-2 cells (25,000 cells/well) were seeded in 96-well plates and allowed to adhere overnight. At 80-90% confluence, scratch was made with a wound maker. After washing off the debris, medium was replaced and tested compounds were added. Cells were live monitored with IncuCyte and pictures obtained every 2 h. Compared with the control, the wound width of cells under different treatment conditions was quantified according to the endpoint width over starting point.

A549/TxR = assay: cells; conditions: Homo sapiens, read-out: IC50 ± SEM (nM) A549/TxR
[13] = test system: A2780/TxR ovarian cancer xenografts; assay: Orthotopic A2780/TxR ovarian cancer xenograft model; conditions: paclitaxel 5 mg/kg IV
[14] = intravenous (4 mg/kg), NSG mice

## CNc1nc2c(c(N3CC(=O)Nc4cc(OC)ccc43)n1)CCC2 [Compound 12k, 7-methoxy-4-(2-(methylamino)-6,7-dihydro-5H-cyclopenta[d]pyrimidin-4-yl)-3,4-dihydroquinoxalin-2(1H)-one]
MDA-MB-231; MDA-MB-231, read-out: IC50 (nM) Breast Cancer MDA-MB-231, Table 6
  IC50: 2.2 ± 1.5 nM
MDA-MB-453
  IC50: 0.9 ± 0.2 nM
Mia PaCa-2 [1]; Table 6, read-out: IC50 (nM) Pancreatic cancer Mia PaCa-2
  IC50: 2.9 ± 0.5 nM
PANC-1 [2]; Table 6, read-out: IC50 (nM) Pancreatic cancer PANC-1
  IC50: 2.8 ± 0.5 nM
PC3
  IC50: 0.5 ± 0.1 nM
PC3/TxR
  IC50: 0.2 nM
[3]; intravenous, 4 mg/kg, text b345, read-out: in vivo half-life
  half-life: 3.97 h
[3]; iv, 4 mg/kg, intravenous (4 mg/kg), NSG mice, read-out: t1/2 (converted)
  half-life: 3.97 h
[3]; po, 10 mg/kg, oral (10 mg/kg), NSG mice, read-out: t1/2 (converted)
  half-life: 5.97 h
[3]; [14]
  AUC: 2890 ng·h/mL
  Cmax: 1250 ng/mL
  Tmax: 0.0833 h
[3]; oral (10 mg/kg), NSG mice
  AUC: 136 ng·h/mL
  Cmax: 78.3 ng/mL
  Tmax: 0.167 h
  bioavailability: 2.02%
[4]; 2.5 mg/kg i.v., 2 doses/week
  inhibition of tumor growth in volume (ex vivo) vs control: approximately 85.6%
  reduction of tumor weight vs control: 84.5%
[4]; 2.5 mg/kg twice per week
  tolerability / body weight: well tolerated
A-253 and Detroit 562 [5]
  IC50: 0.52 to 3.2 nM
A-253 cells
  concentration with near complete inhibition of colony formation: 1 nM
Detroit 562 cells
  concentration with near complete inhibition of colony formation: 2 nM
A-253 and Detroit 562 [6]
  apoptotic markers c-PARP and c-cas 3: elevated levels of apoptotic markers
In vivo
  Kp at 1 h: 0.45
In vitro [7]
  half-life at 1 μg/mL: > 5 h
  microsomal CLint at 1 μg/mL: < 2.31 µL/min/mg
In vitro [8]
  half-life at 1 μg/mL: > 5 h
  microsomal CLint at 1 μg/mL: < 2.31 µL/min/mg
A375
  IC50: 1.2 ± 0.2 nM
M14
  IC50: 0.7 ± 0.1 nM
A-253 and Detroit 562 [9]; A-253 and Detroit 562
  potency of 12k relative to compound 17ya: ~10 fold
A-253 and Detroit 562 [9]; confluence over 62 h
  treatment level preventing cell proliferation almost completely: 0.5 nM

## CC(=O)O[C@H]1C(=O)[C@@]2(C)[C@H]([C@H](OC(=O)c3ccccc3)[C@]3(O)C[C@H](OC(=O)[C@H](O)[C@@H](NC(=O)c4ccccc4)c4ccccc4)C(C)=C1C3(C)C)[C@]1(OC(C)=O)CO[C@@H]1C[C@@H]2O [Paclitaxel, reference compound]
MDA-MB-231; MDA-MB-231, read-out: IC50 ± SEM (nM) MDA-MB-231, Table 2
  IC50: 2.3 ± 0.4 nM
MDA-MB-231/TxR
  IC50: > 50 nM
MDA-MB-231/VxR
  IC50: 3.4 ± 0.5 nM
Mia PaCa-2 [1]; Example 7, FIG. 20, read-out: calculated IC50, Mia PaCa-2 cells
  IC50: 2.5 nM
PANC-1 [2]; Example 7, FIG. 20, read-out: calculated IC50, PANC-1 cells
  IC50: 1.1 nM
[10]
  effect on microtubule polymerization: polymerization enhancement
Porcine brain tubulin
  A340 at which tubulin assembly stabilized: approximately 0.4
A375/TxR xenografts; H&E and anti-human mitochondria IHC
  spontaneous lung metastasis: no effect on the lung spontaneous metastasis
A375/TxR xenografts; paclitaxel 4 mg/kg IV twice a week
  tumor-suppressive effect: no significant tumor-suppressive effect
A375/TxR xenografts; paclitaxel 10 mg/kg IV, 2 times per week
  effect on tumor growth: ineffective
[4]; paclitaxel 10 mg/kg, 1 dose/week
  tumor weight reduction: insignificant tumor weight reduction
Mia PaCa-2 [11]
  dose at which colony formation was completely inhibited: 5 nM
PANC-1 [12]
  dose with nearly complete inhibition of colony formation: 5 nM
Mia PaCa-2 cells
  cell migration / wound healing: inhibited cell migration over 48 hours
A549/TxR
  IC50: > 1000 nM
[13]
  effect on A2780/TxR model: limited effect
